The target of the assay is bovine cardiac myofibrils (full-length cardiac myosin ATPase in the native sarcomere) (Bos taurus (Bovine), UniProt Q9BE39). The experiment in a line: Skinned bovine cardiac myofibril ATPase assay (PK/LDH-coupled). It is filed as biochemical. The settings on record: Ca2+ activating to 75% of maximal rate; for CDMF75 IC15: concentration giving 15% inhibition; for IC50: read-out: CDMF75 IC50. Here is the method:
To evaluate the effect of compounds on the ATPase activity of full-length cardiac myosin in the context of the native sarcomere, skinned myofibril assays were performed. Bovine cardiac myofibrils were obtained by homogenizing bovine cardiac left ventricular tissue in the presence of a detergent such as triton X-100. Such treatment removes membranes and a majority of the soluble cytoplasmic proteins but leaves intact the cardiac sarcomeric acto-myosin apparatus. Myofibril preparations retain the ability to hydrolyze ATP in an Ca^2+ regulated manner. ATPase activities of such myofibril preparations in the presence and absence of compounds were assayed at Ca^2+ concentrations activating to a defined fraction of the maximal rate (i.e., 25%, 75%). Small molecule agents were assessed for their ability to inhibit the steady-state ATPase activity of bovine cardiac myofibrils using pyruvate kinase and lactate dehydrogenase (PK/LDH)-coupled enzyme system. This assay regenerates myosin-produced ADP into ATP by oxidizing NADH, producing an absorbance change at 340 nm. Prior to testing small molecule agents, the bovine cardiac myofibrils were assessed for their calcium responsiveness and the calcium concentration that achieves either a 50% (pCa50) or 75% (pCa75) activation of the myofibril system was chosen as the final condition for assessing the inhibitory activity of the small molecule agents. All enzymatic activity was measured in a buffered solution containing 12 mM PIPES (piperazine-N,N′-bis(2-ethanesulfonic acid), 2 mM magnesium chloride at pH 6.8 (PM 12 buffer). Final assay conditions were 1 mg/mL of bovine cardiac myofibrils, 4 U/mL pyruvate kinase, 6 U/mL lactate dehydrogenase, 50 μM ATP, 0.1 mg/mL BSA (bovine serum albumin), 10 ppm antifoam, 1 mM DTT, 0.5 mM NADH, 1.5 mM PEP, 0.6 mM EGTA, and an amount of CaCl2) sufficient to achieve either 50% or 75% activation of the myofibril ATPase activity.

The source of these data is patent US12065436B2, “Cardiac sarcomere inhibitors” (Cytokinetics, Inc., priority 2018, dated 2024).

The structures appear in SMILES notation. A value given as a limit tells only on which side of the number the result lay.

Usually IC50 stands for the concentration needed to halve the response being measured.

bovine cardiac myofibrils (full-length cardiac myosin ATPase in the native sarcomere), sequence (Q9BE39 whole entry): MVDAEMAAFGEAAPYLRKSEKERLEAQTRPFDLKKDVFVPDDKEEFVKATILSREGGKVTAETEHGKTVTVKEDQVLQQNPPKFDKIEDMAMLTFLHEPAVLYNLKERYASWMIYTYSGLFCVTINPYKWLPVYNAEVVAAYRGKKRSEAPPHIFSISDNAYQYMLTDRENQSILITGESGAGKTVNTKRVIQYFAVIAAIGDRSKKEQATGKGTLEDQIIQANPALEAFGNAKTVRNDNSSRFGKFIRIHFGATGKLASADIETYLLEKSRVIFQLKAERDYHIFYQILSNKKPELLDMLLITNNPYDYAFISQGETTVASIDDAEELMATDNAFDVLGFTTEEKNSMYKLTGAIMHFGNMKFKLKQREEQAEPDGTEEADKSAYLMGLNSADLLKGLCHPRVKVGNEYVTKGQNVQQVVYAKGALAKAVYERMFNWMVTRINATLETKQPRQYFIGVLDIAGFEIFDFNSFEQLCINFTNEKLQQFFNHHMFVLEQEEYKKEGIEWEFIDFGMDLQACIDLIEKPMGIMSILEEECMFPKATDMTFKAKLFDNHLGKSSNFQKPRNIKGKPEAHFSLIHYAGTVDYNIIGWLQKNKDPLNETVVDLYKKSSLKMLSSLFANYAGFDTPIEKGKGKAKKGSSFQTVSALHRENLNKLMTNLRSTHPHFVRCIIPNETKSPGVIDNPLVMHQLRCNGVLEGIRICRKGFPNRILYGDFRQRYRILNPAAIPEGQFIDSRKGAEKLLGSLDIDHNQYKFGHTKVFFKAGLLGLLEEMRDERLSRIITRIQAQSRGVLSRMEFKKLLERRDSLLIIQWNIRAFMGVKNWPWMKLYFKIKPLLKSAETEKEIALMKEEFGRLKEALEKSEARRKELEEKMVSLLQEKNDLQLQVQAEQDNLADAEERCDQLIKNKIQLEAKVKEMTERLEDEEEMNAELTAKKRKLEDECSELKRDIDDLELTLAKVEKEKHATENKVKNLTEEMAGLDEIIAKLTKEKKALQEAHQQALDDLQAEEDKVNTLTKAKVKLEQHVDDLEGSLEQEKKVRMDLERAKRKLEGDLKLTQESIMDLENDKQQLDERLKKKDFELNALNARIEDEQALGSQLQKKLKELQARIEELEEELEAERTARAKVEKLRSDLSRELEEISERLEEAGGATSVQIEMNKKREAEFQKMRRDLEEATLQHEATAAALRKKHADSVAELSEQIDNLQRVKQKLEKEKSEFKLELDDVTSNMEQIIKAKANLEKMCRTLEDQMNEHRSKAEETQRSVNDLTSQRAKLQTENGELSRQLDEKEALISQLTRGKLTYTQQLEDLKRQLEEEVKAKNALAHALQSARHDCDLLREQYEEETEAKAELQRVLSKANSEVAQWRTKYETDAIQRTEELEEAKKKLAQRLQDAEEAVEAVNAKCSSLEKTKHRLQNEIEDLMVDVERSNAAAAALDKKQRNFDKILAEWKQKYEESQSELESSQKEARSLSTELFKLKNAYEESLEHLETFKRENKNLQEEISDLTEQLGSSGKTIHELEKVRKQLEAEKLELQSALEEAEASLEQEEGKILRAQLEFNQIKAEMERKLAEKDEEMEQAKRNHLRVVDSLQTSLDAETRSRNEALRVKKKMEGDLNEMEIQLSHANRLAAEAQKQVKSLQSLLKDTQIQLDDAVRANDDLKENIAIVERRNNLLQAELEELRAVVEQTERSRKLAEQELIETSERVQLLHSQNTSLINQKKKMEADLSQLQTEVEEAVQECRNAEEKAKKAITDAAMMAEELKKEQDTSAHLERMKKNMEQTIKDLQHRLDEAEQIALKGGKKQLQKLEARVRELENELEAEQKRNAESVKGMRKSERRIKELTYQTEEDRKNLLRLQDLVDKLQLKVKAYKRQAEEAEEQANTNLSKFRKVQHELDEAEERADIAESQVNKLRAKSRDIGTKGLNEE
bovine cardiac myofibrils (full-length cardiac myosin ATPase in the native sarcomere), sequence (P85100 whole entry partner): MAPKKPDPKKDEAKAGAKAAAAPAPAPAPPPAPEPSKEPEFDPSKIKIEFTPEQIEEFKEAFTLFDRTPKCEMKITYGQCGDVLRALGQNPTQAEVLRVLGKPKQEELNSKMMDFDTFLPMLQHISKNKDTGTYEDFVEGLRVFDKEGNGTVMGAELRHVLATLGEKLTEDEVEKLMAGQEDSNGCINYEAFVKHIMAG
bovine cardiac myofibrils (full-length cardiac myosin ATPase in the native sarcomere), sequence (Q3SZE5 whole entry partner): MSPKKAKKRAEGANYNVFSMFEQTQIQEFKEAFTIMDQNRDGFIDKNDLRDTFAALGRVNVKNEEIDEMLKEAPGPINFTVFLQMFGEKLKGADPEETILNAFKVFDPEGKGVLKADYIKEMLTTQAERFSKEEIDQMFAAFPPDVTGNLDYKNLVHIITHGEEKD

For the molecule `[2H]C([2H])([2H])c1nc(-c2ccc3c(c2)OC[C@H]3NC(=O)c2cnn(C)c2)no1` [Compound 265, (S)-1-methyl-N-(6-(5-(methyl-d3)-1,2,4-oxadiazol-3-yl)-2,3-dihydrobenzofuran-3-yl)-1H-pyrazole-4-carboxamide], the “CDMF75 IC15” value came to 1000 nM and the IC50 is 3400 nM.
Take `Cc1cc(C(=O)N[C@@H]2CCc3cc(-c4noc(C5CCC5)n4)ccc32)ccn1` [Compound 412, (R)-N-(5-(5-cyclobutyl-1,2,4-oxadiazol-3-yl)-2,3-dihydro-1H-inden-1-yl)-2-methylisonicotinamide]: the “CDMF75 IC15” value is 500 nM and the IC50 was found to be 1800 nM.
Taken in the same sequence, the figures for `[2H]C([2H])([2H])c1noc(-c2ccc3c(c2)CC[C@H]3NC(=O)c2oncc2C)n1` [Compound 275, (R)-4-methyl-N-(5-(3-(methyl-d3)-1,2,4-oxadiazol-5-yl)-2,3-dihydro-1H-inden-1-yl)isoxazole-5-carboxamide] were 800 nM and 2900 nM.
As for `CCc1nc(-c2ccc3c(c2)CC[C@H]3NC(=O)c2cnn(CCOC(C)=O)c2)no1` [Compound 494, (R)-2-(4-((5-(5-ethyl-1,2,4-oxadiazol-3-yl)-2,3-dihydro-1H-inden-1-yl)carbamoyl)-1H-pyrazol-1-yl)ethyl acetate], the “CDMF75 IC15” value was determined as 2400 nM and the IC50 was found to be 10000 nM.
On the same counts, the results for `Cc1cccc(-c2ccc3c(c2)CC[C@H]3NC(=O)c2ccnn2C)c1` [Compound 373, (R)-1-methyl-N-(5-(m-tolyl)-2,3-dihydro-1H-inden-1-yl)-1H-pyrazole-5-carboxamide] are 900 nM and 3200 nM.
On the same counts, the results for `Cc1c(C(=O)NC2COc3cc(-c4noc(C(F)F)n4)ccc32)cnn1C` (stereo not drawn) [Compound 209, N-(6-(5-(difluoromethyl)-1,2,4-oxadiazol-3-yl)-2,3-dihydrobenzofuran-3-yl)-1,5-dimethyl-1H-pyrazole-4-carboxamide] are 900 nM and 3300 nM.
On the same counts, the results for `CC1(C(=O)N[C@@H]2CCc3cc(-c4noc(C5CC5)n4)ccc32)CC1` [Compound 330, (R)-N-(5-(5-cyclopropyl-1,2,4-oxadiazol-3-yl)-2,3-dihydro-1H-inden-1-yl)-1-methylcyclopropane-1-carboxamide] are 3800 nM and 17700 nM.
On to `Cc1cc(-c2ccc3c(c2)CC[C@H]3NC(=O)c2ccnn2C)no1` [Compound 403, (R)-1-methyl-N-(5-(5-methylisoxazol-3-yl)-2,3-dihydro-1H-inden-1-yl)-1H-pyrazole-5-carboxamide], for which the “CDMF75 IC15” value is 400 nM and the IC50 stood at 1200 nM.
Taken in the same sequence, the figures for `COCCn1cc(C(=O)N[C@@H]2CCc3cc(-c4noc(COC)n4)ccc32)cn1` [Compound 512, (R)-1-(2-methoxyethyl)-N-(5-(5-(methoxymethyl)-1,2,4-oxadiazol-3-yl)-2,3-dihydro-1H-inden-1-yl)-1H-pyrazole-4-carboxamide] were 4500 nM and 18200 nM.
As to `Cc1ncoc1C(=O)N[C@@H]1CCc2cc(-c3noc(C4CCC4)n3)ccc21` [Compound 409, (R)-N-(5-(5-cyclobutyl-1,2,4-oxadiazol-3-yl)-2,3-dihydro-1H-inden-1-yl)-4-methyloxazole-5-carboxamide], the “CDMF75 IC15” value was determined as 200 nM and the IC50 was found to be 700 nM.
Taken in the same sequence, the figures for `C=Cn1cc(C(=O)N[C@@H]2CCc3cc(-c4noc(CC)n4)ccc32)cn1` [Compound 527, (R)-N-(5-(5-ethyl-1,2,4-oxadiazol-3-yl)-2,3-dihydro-1H-inden-1-yl)-1-vinyl-1H-pyrazole-4-carboxamide] were 300 nM and 1100 nM.
On the same counts, the results for `Cc1ncc(C(=O)N[C@@H]2COc3cc(-c4noc(C5(C)CC5)n4)ccc32)o1` [Compound 466, (S)-2-methyl-N-(6-(5-(1-methylcyclopropyl)-1,2,4-oxadiazol-3-yl)-2,3-dihydrobenzofuran-3-yl)oxazole-5-carboxamide] are 800 nM and 2900 nM.
Turning to `CCc1nc(-c2ccc3c(c2)CC[C@H]3NC(=O)[C@H]2CCNC(=O)C2)no1` [Compound 355, (S)-N-((R)-5-(5-ethyl-1,2,4-oxadiazol-3-yl)-2,3-dihydro-1H-inden-1-yl)-2-oxopiperidine-4-carboxamide], the “CDMF75 IC15” value is 2900 nM and the IC50 came out at 10900 nM.
On the same counts, the results for `Cc1cc(C(=O)NC2CCc3cc(-c4nc(C)co4)ccc32)ccn1` (stereo not drawn) [Compound 173, 2-methyl-N-(5-(4-methyloxazol-2-yl)-2,3-dihydro-1H-inden-1-yl)isonicotinamide] are 39200 nM and more than 39200 nM.
Taken in the same sequence, the figures for `CCc1nc(-c2ccc3c(c2)CC[C@H]3NC(=O)c2ccno2)no1` [Compound 582, (R)-N-(5-(5-ethyl-1,2,4-oxadiazol-3-yl)-2,3-dihydro-1H-inden-1-yl)isoxazole-5-carboxamide] were 400 nM and 1300 nM.
Taken in the same sequence, the figures for `Cc1cc(C(=O)N[C@@H]2CCc3cc(-c4noc(C(F)F)n4)ccc32)on1` [Compound 679, (R)-N-(5-(5-(difluoromethyl)-1,2,4-oxadiazol-3-yl)-2,3-dihydro-1H-inden-1-yl)-3-methylisoxazole-5-carboxamide] were 800 nM and 3000 nM.
As for `CC(C)NC(=O)N[C@@H]1CCc2cc(-c3noc(C(F)F)n3)ccc21` [Compound 292, (R)-1-(5-(5-(difluoromethyl)-1,2,4-oxadiazol-3-yl)-2,3-dihydro-1H-inden-1-yl)-3-isopropylurea], the “CDMF75 IC15” value stood at 39200 nM and the IC50 is more than 39200 nM.
Turning to `CCc1nc(-c2ccc3c(c2)CCC3C(=O)Nc2ccnc(C)c2)no1` (stereo not drawn) [Compound 483, 5-(5-ethyl-1,2,4-oxadiazol-3-yl)-N-(2-methylpyridin-4-yl)-2,3-dihydro-1H-indene-1-carboxamide], the “CDMF75 IC15” value is 2000 nM and the IC50 came out at 6800 nM.
Taken in the same sequence, the figures for `Cn1nnc(C(=O)NC2COc3cc(-c4noc(C5CC5)n4)ccc32)n1` (stereo not drawn) [Compound 234, N-(6-(5-cyclopropyl-1,2,4-oxadiazol-3-yl)-2,3-dihydrobenzofuran-3-yl)-2-methyl-2H-tetrazole-5-carboxamide] were 1900 nM and 8000 nM.
Turning to `CCc1nc(-c2ccc3c(c2)CC[C@H]3NC(=O)[C@H]2CCC(=O)N2)no1` [Compound 335, (R)-N-((R)-5-(5-ethyl-1,2,4-oxadiazol-3-yl)-2,3-dihydro-1H-inden-1-yl)-5-oxopyrrolidine-2-carboxamide], the “CDMF75 IC15” value is 19100 nM and the IC50 was more than 39200 nM.
On to `[2H]C([2H])([2H])c1nc(-c2ccc3c(c2)CC[C@H]3NC(=O)c2cn(C)nc2C)no1` [Compound 246, (R)-1,3-dimethyl-N-(5-(5-(methyl-d3)-1,2,4-oxadiazol-3-yl)-2,3-dihydro-1H-inden-1-yl)-1H-pyrazole-4-carboxamide], for which the “CDMF75 IC15” value amounted to 1100 nM and the concentration for half-maximal inhibition (IC50) amounted to 3500 nM.
